Experimental data from patent US20260191852A1, “COMBINATION OF SUBSTITUTED 2,4 DIAMINO-QUINOLINE COMPOUNDS AND MEK INHIBITORS FOR USE IN THE TREATMENT OF LIVER CANCERS” (GENFIT, priority 2022, published 2026).
Where a name gives a salt, the structure may show the parent alone. Read-outs that look alike come from different tables or passages of the source.

Experiments:
[1] = test system: intrahepatic cholangiocarcinoma cell line HuCCT1 (KRAS G12D); assay: HuCCT1 cell viability assay (CellTiter-Glo), single compounds, 72 hours; settings: for IC50: Homo sapiens, HuCCT-1, 72 h, read-out: Cell Viability assay IC50
Method: (§1) Cell culture: HuCCT1 cell line harboring KRAS G12D mutation (JCRB Cell Bank #JCRB0425) was maintained in RPMI medium (Dutscher #L0498-500) containing 1% penicillin streptomycin (Dutscher #P06-07100) and 10% fetal bovine serum (Dutscher #SV30160.03C) and were cultured at 37° C. with 5% CO2 in humidified cells incubator.
(§2) HuCCT1 cells were plated at 4.10^3 cells per well in Greiner Bio-one pClear® P96 well plates (Dutscher #655098) with 80 μL of culture media. […] Cell viability was assessed 72 hours post molecular treatment by CellTiter-Glo® luminescent cell viability assay (Promega #G7573) according to the manufacturer protocol and using an Infinity F200 Pro luminometer (Tecan). […] IC50 values were determined as the dose of compound required to reduce luminescent values to 50% of the reference signal obtained for untreated cell cultures. Raw data were analyzed using GraphPad Prism Software v9.4 (GraphPad Software, Inc. La Jolla, CA). For all experiments, analyzed data are shown as mean of triplicate and four independent experiments.

[2] = test system: intrahepatic cholangiocarcinoma cell line HuCCT1 (KRAS G12D)
Method: as §1, §2

[3] = test system: intrahepatic cholangiocarcinoma cell line HuCCT1 (KRAS G12D); assay: Combination effect of binary drug-drug associations on HuCCT1 cell viability, Bliss independence model (MacSynergy II); format: cell-based; settings: growth inhibition of HuCCT1
Method: The HuCCT1 cell viability assay with binary drug-drug association was performed as described in example 1. The drug-drug binary associations of compounds 2-2+Trametinib and HCQ+Trametinib were tested in a checkerboard fashion in Greiner Bio-one pClear® 96-well plates (Dutscher #655098). The concentration ranges were selected nearby and surrounding the IC50 values of each individual compound. Compound 2-2 in combination with Trametinib was tested at 1.28 μM, 1.6 μM, 2.0 μM, 2.5 μM and 3.125 μM. HCQ [747-36-4] in combination with Trametinib was tested at 15 μM, 20 μM, 30 μM, 45 μM, 60 μM. Trametinib (Selleckchem #S2673, [871700-17-3]) in combination with compound 2-2 or in combination with HCQ was tested in both cases at 0.005 μM, 0.03 μM, 6.0 μM, 15 μM, 30 μM, 60 μM, 90 μM. The combination effects of both binary drug-drug association compound 2-2+Trametinib and HCQ+Trametinib were analyzed with two softwares: MacSynergy™ II (1) and SynergyFinder. (2) MacSynergy™ II was used to analyze the combination effect according to the Bliss independence model which assumes probabilistic statistical independence between the combined compounds.(3) The main assumption of the Bliss independence principle is that two or more combined drugs act independently from each other with distinct mode of action. SynergyFinder was used to analyze the combination effect according to the Loewe additivity model which is based on its principle of a sham drug-drug combination which assumes no interaction when a compound is combined with itself.(4)
The combination effects of the drug-drug associations of compound 2-2+Trametinib and hydroxychloroquine+Trametinib were evaluated according to the Bliss independence model using MacSynergy™ II for their respective capacities to inhibit the growth of intrahepatic cholangiocarcinoma cell line HuCCT1 (Table 4).
The HuCCT1 cell viability assay with binary drug-drug association was performed as described in example 1. The binary drug-drug associations of compounds 2-2+Cobimetinib and HCQ+Cobimetinib were tested in a checkerboard fashion in Greiner Bio-one pClear® 96-well plates (Dutscher #655098). The concentration ranges were selected nearby and surrounding the IC50 values of each individual compound. Compound 2-2 in combination with Cobimetinib was tested at 1.28 μM, 1.6 μM, 2.0 μM, 2.5 μM and 3.125 μM. HCQ [747-36-4] in combination with Cobimetinib was tested at 15 μM, 20 μM, 30 μM, 45 μM, 60 μM. Cobimetinib (Selleckchem #S8041, [934660-93-2]) in combination with compound 2-2 or in combination with HCQ was tested in both cases at 0.10 μM, 1.0 μM, 10 μM, 30 μM, 60 μM, 80 μM, 100 μM. The combination effects of both binary drug-drug association compound 2-2+Cobimetinib and HCQ+Cobimetinib were analyzed with two softwares: MacSynergy™ II (1) and SynergyFinder (2). […]
The combination effects of the binary drug-drug associations of compound 2-2+Cobimetinib and hydroxychloroquine+Cobimetinib were evaluated according to the Bliss independence model using MacSynergy™ II for their respective capacities to inhibit the growth of intrahepatic cholangiocarcinoma cell line HuCCT1 (Table 7).

[4] = test system: intrahepatic cholangiocarcinoma cell line HuCCT1 (KRAS G12D); assay: Combination effect of binary drug-drug associations on HuCCT1 cell viability, Loewe additivity model (SynergyFinder); format: cell-based; settings: growth inhibition of HuCCT1
Method: The HuCCT1 cell viability assay with binary drug-drug association was performed as described in example 1. The drug-drug binary associations of compounds 2-2+Trametinib and HCQ+Trametinib were tested in a checkerboard fashion in Greiner Bio-one pClear® 96-well plates (Dutscher #655098). The concentration ranges were selected nearby and surrounding the IC50 values of each individual compound. Compound 2-2 in combination with Trametinib was tested at 1.28 μM, 1.6 μM, 2.0 μM, 2.5 μM and 3.125 μM. HCQ [747-36-4] in combination with Trametinib was tested at 15 μM, 20 μM, 30 μM, 45 μM, 60 μM. […] The combination effects of both binary drug-drug association compound 2-2+Trametinib and HCQ+Trametinib were analyzed with two softwares: MacSynergy™ II (1) and SynergyFinder. […]
The combination effects of the drug-drug associations of compound 2-2+Trametinib (Table 2) and HCQ+Trametinib (Table 3) were evaluated according to the Loewe additivity model using SynergyFinder for their respective capacities to inhibit the growth of intra-hepatic cholangiocarcinoma cell line HuCCT1.
The HuCCT1 cell viability assay with binary drug-drug association was performed as described in example 1. […] The combination effects of both binary drug-drug association compound 2-2+Cobimetinib and HCQ+Cobimetinib were analyzed with two softwares: MacSynergy™ II (1) and SynergyFinder (2). […]

Compound	IC50 [1] [nM]	cytotoxic activity against HuCCT1 [2]	combination effect when associated with Cobimetinib, Bliss model [3]	combination effect when associated with Trametinib [3]	combination effect when associated with a MEK inhibitor (e.g., Trametinib, Cobimetinib), Bliss independence model [3]	cytotoxic activity against HuCCT1 ([1]; HuCCT1, 72 hours)	combination effect when associated with Cobimetinib, Loewe model [4]
O=C(c1ccc(F)c(F)c1Nc1ccc(I)cc1F)N1CC(O)([C@@H]2CCCCN2)C1 [Cobimetinib]	1200 ± 800	dose-response cytotoxic activity	–	–	–	–	–
CC(C)(C)NC1CCN(c2cc(NCc3ccc(Cl)cc3)nc3ccccc23)CC1 [Compound 2-2, 2-(4-chlorobenzylamino)-4-(4-tert-butylaminopiperidin-1-yl)-quinoline]	2200 ± 200	–	significant synergy combination effect	significant synergy combination effect	significant synergy combination effect	dose-response cytotoxic activity	overall additive effect
CCN(CCO)CCCC(C)Nc1ccnc2cc(Cl)ccc12 (stereo not drawn) [Hydroxychloroquine, hydroxychloroquine sulfate]	27200 ± 1200	dose-response cytotoxic activity	minor synergy without significant impact in vivo	only an additive effect	–	–	overall additive effect
CC(=O)Nc1cccc(-n2c(=O)n(C3CC3)c(=O)c3c(Nc4ccc(I)cc4F)n(C)c(=O)c(C)c32)c1 [Trametinib]	310 ± 260	dose-response cytotoxic activity	–	–	–	–	–
